# Values quoted from earlier work as cited in patent US20020086849A1, “Method for introducing antisense oligonucleotides into eucaryotic cells” (priority 2000, published 2002).
# Conditions: as described in U.S. Pat. No. 5,753,613
smiles,measurement,value
"CCCCCCCCCCCCCCCCCC[N+](C)(C)CCCCCCCCCCCCCCCCCC.[Br-] [DDAB, dimethyldioctadecylammonium bromide]",transfection efficiency,poor transfection efficiency
